# B1: NGF: mNGF2. 5S (alomone labs, PRODUCT#N-100), used as mNGF-added medium (protein, UniProt P01139 122-241, looked up)
# Beta-nerve growth factor: SSTHPVFHMGEFSVCDSVSVWVGDKTTATDIKGKEVTVLAEVNINNSVFRQYFFETKCRASNPVESGCRGIDSKHWNSYCTTTHTFVKALTTDEKQAAWRFIRIDTACVCVLSRKATRRG
# modifications: Beta-nerve growth factor
# notes: mNGF2; 5S (alomone labs, PRODUCT#N-100), used as mNGF-added medium
# Legend:
# [1] = test system: rat spinal cord dorsal root ganglion neuron; assay: Neurite (axon)-outgrowing activity, rat spinal cord dorsal root ganglion neuron, laminin-coated culture vessel; format: cell-based; conditions: 1 μM; second day of culture; FIG. 9
# [2] = test system: rat fetus (viviparity 17 days) cerebral cortex neuron; assay: Neurite-outgrowing activity, rat fetus cerebral cortex neuron, poly-L-lysine-coated culture vessel; format: cell-based; conditions: for Neurite Density / Neurite Length / Neurite Thickness: relative amount, basal medium = 1
# Description: Rat fetus (viviparity 17 days) cerebral cortex neuron (Sumitomo Bakelite Co., Ltd.)
# From a frozen cerebral tissue, using an attached protocol and attached reagents, a cerebral cortex neuron was prepared, was cultured in an NSF-1 (neurotrophic factor; name of substance or the like is not disclosed)-added PNBM medium for 2 hours, and then in a PNBM medium containing the sample (the compound produced in Example 1).
# The dissemination was performed with a neuron concentration of 2×10^5 cells/0.5 mL/well (24-well-plate).
# (§1) The sample (the compound produced in Example 1) was dissolved in DMSO to prepare a 10 mM solution. The 10 mM solution was diluted with DMSO to prepare a 1 mM solution. Further dilution of the solution was performed with a PNBM medium.
# (§2) Finally, sample-added media of 0.2 μM concentration and 1 μM concentration were prepared. With respect to the mNGF medium, a 5 ng/mL mNGF-added medium and a 25 ng/mL mNGF-added medium were prepared.
# Culture in Poly-L-Lysine-Coated Culture Vessel
# (§3) On the third day of the culture, the culture medium was exchanged. Photographs of a neuron on the fifth day of the culture are shown in the drawings (a photograph of a neuron on the fifth day of the culture in the basal medium (additive-free) is shown in FIG. 4; a photograph of a neuron on the fifth day of the culture in the neurotrophic factor (NSF-1)-added medium is shown in FIG. 5; and a photograph of a neuron on the fifth day of the culture in the sample-added medium (1 μM concentration) is shown in FIG. 6). Here, the number in Table 1 indicates a relative amount when the value in the basal medium (additive-free) is assumed to be 1.
# [3] = test system: rat spinal cord dorsal root ganglion neuron; assay: Neurite (axon)-outgrowing activity, rat spinal cord dorsal root ganglion neuron, laminin-coated culture vessel; format: cell-based; conditions: fifth day of culture; for Neurite (axon) Density / Neurite (axon) Length / Neurite (axon) Thickness: relative amount, basal medium = 1
# Description: Rat spinal cord dorsal root ganglion (Takara Bio Inc.)
# Laminin-coated: a well was coated with a culture supernatant containing laminin 5B to be used.
# A spinal cord neuron in a frozen state was thawed according to the attached protocol and the neuron was cultured in an NSF-1-added PNBM medium for 2 hours and then in a PNBM medium containing the sample (the compound produced in Example 1).
# The dissemination was performed with a spinal cord neuron concentration of 2.5×10^4 cells/0.1 mL/well (96-well-plate).
# as §1, §2
# Culture in Laminin-Coated Culture Vessel
# A spinal cord neuron can easily outgrow a neurite (axon) and outgrows a neurite even in an additive-free medium.
# as §3, with “FIG. 10;” for “FIG. 4;”, “FIG. 11;” for “FIG. 5;”, “FIG. 12).” for “FIG. 6).”, “Table 2” for “Table 1”
molecule,measurement,setting,value
"C[C@@H]([C@H]1CC[C@H]2[C@@H]3CCc4cc(O)ccc4[C@H]3CC[C@]12C)[C@H]1CC=C(CO)C(=O)O1 [Example 1, 6-[1-(3-hydroxy-13-methyl-7,8,9,11,12,13,14,15,16,17-decahydro-6H-cyclopenta[a]phenanthren-17-yl)-ethyl]-3-hydroxymethyl-5,6-dihydropyran-2-one]",melting point,,248 to 250 °C
same,axon outgrowth (in words),[1],"the axon outgrew more than in the basal medium (additive-free), but less than in the neurotrophic factor (NSF-1)-added medium"
same,Neurite Density,"[2]; 0.2 μM, fifth day of culture",1
same,Neurite Length,"[2]; 0.2 μM, fifth day of culture",1
same,Neurite Thickness,"[2]; 0.2 μM, fifth day of culture",1
same,neurite-outgrowing activity (in words),"[2]; 1 μM, fifth day of culture",has a neurite-outgrowing activity
same,Neurite Density,"[2]; 1 μM, fifth day of culture",1.5
same,Neurite Length,"[2]; 1 μM, fifth day of culture",2
same,Neurite Thickness,"[2]; 1 μM, fifth day of culture",2
same,number of neurites (in words),"[2]; 1 μM, second day of culture, FIG. 3","the number of neurites increased more than in the basal medium (additive-free), but less than in the neurotrophic factor (NSF-1)-added medium"
same,Neurite (axon) Density,[3]; 0.2 μM,2
same,Neurite (axon) Length,[3]; 0.2 μM,2
same,Neurite (axon) Thickness,[3]; 0.2 μM,1
same,axon length and thickness (in words),[3]; 1 μM,the axon outgrew longer but did not become thicker
same,Neurite (axon) Density,[3]; 1 μM,2
same,Neurite (axon) Length,[3]; 1 μM,2.5
same,Neurite (axon) Thickness,[3]; 1 μM,1
B1,Neurite Density,"[2]; 5 ng/mL, fifth day of culture",2
same,Neurite Length,"[2]; 5 ng/mL, fifth day of culture",2
same,Neurite Thickness,"[2]; 5 ng/mL, fifth day of culture",2
same,Neurite Density,"[2]; 25 ng/mL, fifth day of culture",2.5
same,Neurite Length,"[2]; 25 ng/mL, fifth day of culture",2
same,Neurite Thickness,"[2]; 25 ng/mL, fifth day of culture",2
same,Neurite (axon) Density,[3]; 5 ng/mL,2
same,Neurite (axon) Length,[3]; 5 ng/mL,2
same,Neurite (axon) Thickness,[3]; 5 ng/mL,1
same,Neurite (axon) Density,[3]; 25 ng/mL,2
same,Neurite (axon) Length,[3]; 25 ng/mL,3
same,Neurite (axon) Thickness,[3]; 25 ng/mL,2

# Reference: patent publication US8841284B2, “Compound having neurite-outgrowing activity” (Lead Chemical Co., Ltd, priority 2009, dated 2014)
